Laboratory results taken from patent US7605175B2, “Inhibitors of cyclin-dependent kinases, compositions and uses related thereto” (GPC Biotech AG, priority 2001, dated 2009).
Where two headings read alike, the source gives them in different places.

Assays:
[1] = tested on: HCT-116 cells; assay: Calcein AM viability assay, HCT-116; assay type: cell-based; settings: Homo sapiens
Protocol: The potency of Cdk inhibitors, as measured by loss of cellular viability, was determined with the Calcein AM assay (Molecular Probes). Calcein AM is a substrate of intracellular esterases, which is cleaved only in viable cells to generate a fluorescent product that can be quantified with a fluorescent plate reader. The fluorescent signal is proportional to the number of viable cells, and thus loss of signal in response to the exposure of cells to Cdk inhibitors correlates with a loss of viability. This assay can distinguish cell cycle arrest, in which cells may still by viable, from loss of viability and is thus well suited for the evaluation of Cdk inhibitors. A compound that is a potent cytotoxic, may cause significant loss of cell viability in such assay.
Cellular IC50's were determined in the human colorectal carcinoma cell line, HCT-116, and the normal human fibroblast, IMR90. Protein adjusted IC50's were also determined in HCT-116.
HCT-116 or IMR90 cells were recovered from sub-confluent plates by trypsinization and 1,000 or 4,000 cells, respectively, were plated in 24-well dishes and incubated overnight at 37° C., 5% CO2. HCT-116 cells were cultured in RPMI-1640, 10% FCS, and IMR90 cells were cultured in Minimum Essential Medium-alpha, 10% FCS. After overnight incubation to allow adherence, the media was aspirated from each well and replaced with media containing a test compound at a concentration from 0 to 250 nM, spanning a total of 7 doses. The plates were returned to the incubator and cultured for an additional 72 hours (3 days). […] After 72-hours incubation with the test compound, the cells were washed twice with 1×PBS, taking special care to remove all residual buffer.
A 5 μM Calcein AM solution was prepared by dissolving a […] aliquot of Calcein (Molecular Probes catalog # C3100) in 50 μl DMSO. After the Calcein had completely dissolved (10 minutes at room temperature), it was diluted into 10 ml PBS. Calcein/PBS (0.5 ml) was added to each well. The plates were incubated for 75 minutes at 37° C. (protected from light) and the fluorescent signal was read on a fluorescent plate reader (excitation 485/20 and emission 530/25).

[2] = target: T1, Cdc2/cyclin B (Homo sapiens, UniProt P06493); assay: Biochemical kinase assay Cdc2/cyclin B; settings: Table 6
T1 construct: purchased
Source text: (§1) Enzymes: Cdc2/cyclin B was obtained from commercial sources. Cdk2/his-cyclin Eshort was expressed in Sf9 cells. Cdk2/cyclin A, cdk4/cyclin D1, and cdk6/cyclin D2 were expressed in Sf9 cells. Protein kinase A (catalytic subunit, from bovine heart) and protein kinase C (mixed isozymes from rat brain) were obtained from commercial sources.
(§2) Substrates: Histone H1 was from commercial sources. GST-Rb is glutathione-S-trans-ferase fused to the N-terminal of residues 379-928 of the Rb protein.
Assays: Cdc2/cyclinB activity was determined by measuring incorporation of radio-activity from adenosine [γ-^32P]triphosphate into Histone H1 using a TCA precipitation assay. Cdc2/cyclin B kinase and Histone H1 were obtained from commercial sources. The final assay solution contained 50 mM Tris.HCl, 10 mM MgCl2, 1 mM dithiothreitol, 50 μM adenosine triphosphate, 2 μCi ^32P, 10% dimethylsulfoxide (from compounds), pH 7.5, 20 μg Histone H1, 6 U enzyme in a 50 μL volume. Compounds were added at various concentrations between 1 nM and 10 μM. The reaction was started with the addition of enzyme, allowed to proceed for 20 min at 30° C., and stopped by the addition of 20 μL of stop solution (237 mM disodium ethylenediamine tetraacetate, 105 mM adenosine triphosphate, pH 8.0). The protein was precipitated by the addition of 35 μL 70% (w/v) trichloroacetic acid, and the precipitate was captured on a 96-well glass fiber filter plate (Millipore, Inc.), which had been wet with 25% (w/v) trichloroacetic acid. The filter was washed ten times with 25% (w/v) trichloroacetic acid, and the amount of incorporated ^32P was determined by scintillation counting after adding 100 μL scintillant (Microscint 20, Packard Instruments). Relative activity was determined by dividing the amount of radioactivity incorporated in the presence of compound by the amount of radioactivity incorporated in a control experiment containing DMSO alone but no compound. The background radioactivity, determined in an experiment containing 50 mM EDTA in place of compound, was subtracted from all results before calculations.

[3] = target: T2, Cdk2/cyclin E (Homo sapiens, UniProt P24941); assay: Biochemical kinase assay Cdk2/cyclin E; settings: Table 6
T2 construct: made in house; host or cells: Sf9 insect cells
Source text: as §1, §2
(§3) Cdk2/cyclin E, Cdk2/cyclin A, Cdk4/cyclin D1, and Cdk6/cyclin D2 activity was determined using a glutathione-sepharose capture assay. The enzymes were expressed in Sf9 insect cells as heterodimers, and the substrate (GST-Rb) was glutathione-S-transferase fused to residues 379 to 928 of Rb retinoblastoma protein, expressed in E. coli. The assay solution contained 50 mM Tris.HCl, 10 mM MgCl2, 1 mM dithiothreitol, 50 μM adenosine triphosphate, 2 μCi [γ-^33P]adenosine triphosphate, 10% dimethylsulfoxide (from compounds), pH 7.5, 40 μg GST-Rb, and enzyme in a 100 μL volume. Compounds were added at various concentrations between 1 nM and 10 μM. The reaction was allowed to proceed for 15 min at 30° C. and was stopped by the addition of 70 μL of stop solution (237 mM disodium ethylene-diamine tetraacetate, 105 mM adenosine triphosphate, pH 8.0). The GST-Rb was captured by binding to glutathione-sepharose bead (Amersham) for 110 min, and the suspension was filtered through a glass fiber filter. After washing the retained beads five time with phosphate-buffered saline containing 0.3% (w/v) Tween-20, the amount of ^33P incorporated was determined by scintillation counting after adding 100 μL scintillant. Relative activity was determined by dividing the amount of radioactivity incorporated in the presence of compound by the amount of radioactivity incorporated in a control experiment containing DMSO alone but no compound. The background radioactivity, determined in an experiment containing 50 mM disodium ethylenediamine tetraacetate in place of compound, was subtracted from all results before calculations.

[4] = target: T3, Cdk4/cyclin D1 (Homo sapiens, UniProt P11802); assay: Biochemical kinase assay Cdk4/cyclin D1; settings: Table 6
T3 construct: made in house; host or cells: Sf9 insect cells
Source text: as §1, §2, §3

[5] = HCT-116, non-protein adjusted, Table 6, read-out: HCT-116 viability IC50

T3 sequence (P11802 whole entry, species assumed): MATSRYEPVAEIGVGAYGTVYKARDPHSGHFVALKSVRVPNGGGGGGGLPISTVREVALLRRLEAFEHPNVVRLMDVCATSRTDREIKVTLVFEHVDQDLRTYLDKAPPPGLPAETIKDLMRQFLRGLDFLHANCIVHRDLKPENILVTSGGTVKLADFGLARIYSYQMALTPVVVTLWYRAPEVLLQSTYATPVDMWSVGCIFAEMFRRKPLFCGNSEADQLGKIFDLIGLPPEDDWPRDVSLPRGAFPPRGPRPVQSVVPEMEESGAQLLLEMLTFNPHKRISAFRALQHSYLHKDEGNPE
T3 sequence (P24385 whole entry partner, species assumed): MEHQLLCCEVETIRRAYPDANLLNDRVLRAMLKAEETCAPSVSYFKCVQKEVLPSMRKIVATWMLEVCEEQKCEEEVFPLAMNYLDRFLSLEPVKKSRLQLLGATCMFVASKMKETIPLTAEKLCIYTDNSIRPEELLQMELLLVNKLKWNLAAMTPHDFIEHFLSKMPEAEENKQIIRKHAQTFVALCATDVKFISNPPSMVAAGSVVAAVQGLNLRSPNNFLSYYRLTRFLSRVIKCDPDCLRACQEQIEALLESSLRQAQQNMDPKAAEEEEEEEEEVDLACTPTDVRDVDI
T1 sequence (P06493 whole entry, species assumed): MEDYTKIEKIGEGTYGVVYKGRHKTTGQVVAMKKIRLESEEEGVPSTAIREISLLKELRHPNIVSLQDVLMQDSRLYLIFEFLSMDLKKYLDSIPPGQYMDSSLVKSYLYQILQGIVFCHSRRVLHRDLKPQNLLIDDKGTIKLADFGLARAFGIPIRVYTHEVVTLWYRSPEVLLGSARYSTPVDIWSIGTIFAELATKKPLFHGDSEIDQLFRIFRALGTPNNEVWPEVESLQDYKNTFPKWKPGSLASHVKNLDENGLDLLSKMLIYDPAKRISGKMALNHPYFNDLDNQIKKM
T1 sequence (P14635 whole entry partner, species assumed): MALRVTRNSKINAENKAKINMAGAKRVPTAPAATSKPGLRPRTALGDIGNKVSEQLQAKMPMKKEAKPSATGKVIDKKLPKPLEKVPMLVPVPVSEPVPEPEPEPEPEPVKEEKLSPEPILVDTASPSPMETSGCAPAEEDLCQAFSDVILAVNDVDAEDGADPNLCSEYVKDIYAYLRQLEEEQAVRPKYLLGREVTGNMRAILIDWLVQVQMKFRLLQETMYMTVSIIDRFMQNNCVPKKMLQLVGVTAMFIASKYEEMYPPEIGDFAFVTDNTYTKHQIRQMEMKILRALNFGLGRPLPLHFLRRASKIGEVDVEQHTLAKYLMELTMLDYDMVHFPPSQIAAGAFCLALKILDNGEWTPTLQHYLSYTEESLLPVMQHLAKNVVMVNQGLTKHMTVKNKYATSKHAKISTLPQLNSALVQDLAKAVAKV

| SMILES | IC50 [1, 5] | IC50 [2] | IC50 [3] | IC50 ([1]; HCT-116, read-out: HCT-116 viability IC50) | IC50 [4] |
| --- | --- | --- | --- | --- | --- |
| CC(C)c1nn(-c2c(Cl)cc(Cl)cc2Cl)c2nc(Cc3ccc(NS(=O)(=O)CCCN4CCCCC4)cc3)[nH]c(=O)c12 [Compound A48] | < 100 nM | < 1000 nM | < 100 nM |  |  |
| CC(C)c1nn(-c2c(Cl)cccc2Cl)c2nc(Cc3ccc(OCCOC(=O)[C@@H](N)C(C)C)cc3)[nH]c(=O)c12 [Compound A60] |  |  | < 100 nM | < 100 nM |  |
| CC(C)c1nn(-c2c(Cl)cc(Cl)cc2Cl)c2nc(Cc3ccc(OCCN4CCN(C(C)C)CC4)cc3)[nH]c(=O)c12 [Compound A1] | < 100 nM | < 100 nM | < 10 nM |  | < 1000 nM |
| CC(C)c1nn(-c2c(Cl)cccc2Cl)c2nc(Cc3ccc(O)c(CN4CCOCC4)c3)[nH]c(=O)c12 [Compound A5] | < 100 nM | < 1000 nM | < 100 nM |  | < 10000 nM |
| CCN1CCN(S(=O)(=O)c2cc(Cl)c(-n3nc(C(C)C)c4c(=O)[nH]c(Cc5ccc(OCCN6CCOCC6)cc5)nc43)c(Cl)c2)CC1 [Compound A53] | < 10 nM | < 1000 nM | < 1000 nM |  | < 10000 nM |
| CC(C)c1nn(-c2c(Cl)cccc2Cl)c2nc(Cc3ccc(CN4CCN(C(C)C)CC4)c(O)c3)[nH]c(=O)c12 [Compound A50] | < 100 nM | < 1000 nM | < 100 nM |  |  |
| CCN(CCO)S(=O)(=O)c1cc(Cl)c(-n2nc(C(C)C)c3c(=O)[nH]c(Cc4ccc(OCCN5CCOCC5)cc4)nc32)c(Cl)c1 [Compound A55] | < 100 nM | < 100 nM | < 100 nM |  | < 10000 nM |
| CC(C)c1nn(-c2c(Cl)cccc2Cl)c2nc(Cc3ccc(O)cc3)[nH]c(=O)c12 [Compound A4] | < 100 nM | < 100 nM | < 10 nM |  | < 100 nM |
| CC(C)c1nn(-c2c(Cl)cccc2Cl)c2nc(Cc3ccc(OCC(C)(C)O)cc3)[nH]c(=O)c12 [Compound A63] | < 100 nM | < 100 nM | < 100 nM |  | < 1000 nM |
| O=C(Nc1cccc2c1C(=O)c1c-2n[nH]c1-c1ccc(OCCN2CCOCC2)cc1)NN1CCOCC1 [Compound A3] |  | < 100 nM | < 100 nM |  | < 100 nM |
| CN1CCN(NC(=O)Nc2cccc3c2C(=O)c2c-3n[nH]c2-c2ccc(O)cc2)CC1 [Compound A15] |  | < 10 nM | < 100 nM |  | < 100 nM |
| O=C(Nc1cccc2c1C(=O)c1c-2n[nH]c1-c1ccc(OCC(=O)N2CCOCC2)cc1)NN1CCOCC1 [Compound A36] |  | < 100 nM | < 100 nM |  | < 100 nM |
| O=C(Nc1cccc2c1C(=O)c1c-2n[nH]c1-c1ccc(S(=O)(=O)N2CCNCC2)cc1)NN1CCOCC1 [Compound A56] |  | < 100 nM | < 100 nM |  | < 1000 nM |
| Cc1cc(-c2[nH]nc3c2C(=O)c2c(NC(=O)NN4CCN(C)CC4)cccc2-3)ccc1OCCN1CCN(C(C)C)CC1 [Compound A18] |  | < 100 nM | < 100 nM |  | < 100 nM |
| CC(C)N1CCN(S(=O)(=O)c2ccc(-c3[nH]nc4c3C(=O)c3c(NC(=O)NN5CCOCC5)cccc3-4)cc2)CC1 [Compound A57] |  | < 10 nM | < 10 nM |  | < 100 nM |
| Cc1cc(OCCN2CCOCC2)ccc1-c1[nH]nc2c1C(=O)c1c(NC(=O)NN3CCN(C)CC3)cccc1-2 [Compound A7] |  | < 100 nM | < 100 nM |  | < 100 nM |
| CCOC(=O)CN1CCN(NC(=O)Nc2cccc3c2C(=O)c2c-3n[nH]c2-c2ccc(OCCN3CCCC3)cc2)CC1 [Compound A26] |  | < 100 nM | < 100 nM |  | < 100 nM |
| Cc1cc(-c2[nH]nc3c2C(=O)c2c(NC(=O)NN4CCOCC4)cccc2-3)ccc1OCCN1CCCC1 [Compound A25] |  | < 100 nM | < 100 nM |  | < 100 nM |
| CCOC(=O)COc1ccc(-c2[nH]nc3c2C(=O)c2c(NC(=O)NN4CCOCC4)cccc2-3)cc1 [Compound A65] |  | < 10 nM | < 100 nM |  | < 100 nM |
| O=C(Nc1cccc2c1C(=O)c1c-2n[nH]c1-c1ccc(OCC(=O)N2CCCC2)cc1)NN1CCOCC1 [Compound A46] |  | < 10 nM | < 100 nM |  | < 1000 nM |
| CN1CCN(NC(=O)Nc2cccc3c2C(=O)c2c(-c4ccc(OCCN5CCCC5)c(F)c4)n[nH]c2-3)CC1 [Compound A14] |  | < 100 nM | < 100 nM |  | < 100 nM |
| CN1CCN(NC(=O)Nc2cccc3c2C(=O)c2c(-c4ccc(OCCN5CCCC5)cc4F)n[nH]c2-3)CC1 [Compound A12] |  | < 100 nM | < 100 nM |  | < 100 nM |
| CC(C)N1CCN(C(=O)COc2ccc(-c3[nH]nc4c3C(=O)c3c(NC(=O)NN5CCOCC5)cccc3-4)cc2)CC1 [Compound A76] | < 100 nM | < 100 nM | < 100 nM |  | < 100 nM |
| Cc1cc(OCCN2CCN(C(C)C)CC2)ccc1-c1[nH]nc2c1C(=O)c1c(NC(=O)NN3CCN(C)CC3)cccc1-2 [Compound A19] |  | < 100 nM | < 100 nM |  | < 1000 nM |
| O=C(Nc1cccc2c1C(=O)c1c(-c3ccc(OCCN4CCOCC4)c(F)c3)n[nH]c1-2)NN1CCOCC1 [Compound A27] |  | < 10 nM | < 100 nM |  | < 100 nM |
| Cc1nc(Cc2nc3c(c(C(C)C)nn3-c3c(Cl)cccc3Cl)c(=O)[nH]2)cs1 [Compound A58] |  | < 10000 nM | < 10 nM |  | < 10000 nM |
| O=C(Nc1cccc2c1C(=O)c1c(-c3ccc(OCCN4CCOCC4)cc3Cl)n[nH]c1-2)NN1CCOCC1 [Compound A28] |  | < 100 nM | < 100 nM |  | < 1000 nM |
| Cc1cc(OCCCN2CCN(C(C)C)CC2)ccc1-c1[nH]nc2c1C(=O)c1c(NC(=O)NN3CCOCC3)cccc1-2 [Compound A21] |  | < 100 nM | < 10 nM |  | < 1000 nM |
| CC(C)c1nn(-c2c(Cl)cc(Cl)cc2Cl)c2nc(Cc3ccc(NS(=O)(=O)CCCN4CCN(C(C)C)CC4)cc3)[nH]c(=O)c12 [Compound A39] |  | < 1000 nM | < 100 nM |  | < 1000 nM |
